Measured values from patent US10131652B2, “Pyrimidinyloxy benzene derivatives as herbicides” (E. I. DU PONT DE NEMOURS AND COMPANY, priority 2014, dated 2018).
Read-outs that look alike come from different tables or passages of the source.

What was measured:
Experiment in all cases: Test D pre-/postemergence plant response
Format in all cases: in vivo
[1] = tested on: morningglory (Ipomoea coccinea); conditions: Ipomoea; for pest or weed control at 8 g/ha: 8 g ai/ha; for pest or weed control at 16 g/ha: 16 g ai/ha; for pest or weed control at 31 g/ha: 31 g ai/ha; for pest or weed control at 62 g/ha: 62 g ai/ha
Excerpt: (§1) Seeds of plant species selected from blackgrass (Alopecurus myosuroides), Italian ryegrass (Lolium multiflorum), winter wheat (Triticum aestivum), galium (catchweed bedstraw, Galium aparine), corn (Zea mays), large (Lg) crabgrass (Digitaria sanguinalis), giant foxtail (Setaria faberii), johnsongrass (Sorghum halepense), lambsquarters (Chenopodium album), morningglory (Ipomoea coccinea), yellow nutsedge (Cyperus esculentus), pigweed (Amaranthus retroflexus), ragweed (common ragweed, Ambrosia elatior), soybean (Glycine max), bamyardgrass (Echinochloa crus-galli), oilseed rape (Brassica napus), waterhemp (common waterhemp, Amaranthus rudis), and velvetleaf (Abutilon theophrasti) were planted into a blend of loam soil and sand and treated preemergence with test chemicals formulated in a non-phytotoxic solvent mixture which included a surfactant. At the same time, plants selected from these crop and weed species and also kochia (Kochia scoparia), wild oat (Avena fatua), and chickweed (common chickweed, Stellaria media) were planted in pots containing Redi-Earth® planting medium (Scotts Company, 14111 Scottslawn Road, Marysville, Ohio 43041) comprising spaghnum peat moss, vermiculite, wetting agent and starter nutrients and treated with postemergence applications of test chemicals formulated in the same manner. Plants ranged in height from 2 to 18 cm (1- to 4-leaf stage) for postemergence treatments. Treated plants and controls were maintained in a greenhouse for 13 to 15 days, after which time all species were compared to controls and visually evaluated. Plant response ratings, summarized in Table D, are based on a scale of 0 to 100 where 0 is no effect and 100 is complete control. A dash (-) response means no test result.

[2] = tested on: oilseed rape (Brassica napus); conditions: Brassica napus; for plant injury at 8 g/ha: 8 g ai/ha; for plant injury at 16 g/ha: 16 g ai/ha; for plant injury at 31 g/ha: 31 g ai/ha; for plant injury at 62 g/ha: 62 g ai/ha
Excerpt: as §1

[3] = tested on: pigweed (Amaranthus retroflexus); conditions: Amaranthus retroflexus; for pest or weed control at 8 g/ha: 8 g ai/ha; for pest or weed control at 16 g/ha: 16 g ai/ha; for pest or weed control at 31 g/ha: 31 g ai/ha; for pest or weed control at 62 g/ha: 62 g ai/ha
Excerpt: as §1

[4] = tested on: ragweed (common ragweed, Ambrosia elatior); conditions: Ambrosia artemisiifolia; for pest or weed control at 8 g/ha: 8 g ai/ha; for pest or weed control at 16 g/ha: 16 g ai/ha; for pest or weed control at 31 g/ha: 31 g ai/ha; for pest or weed control at 62 g/ha: 62 g ai/ha
Excerpt: as §1

soybean (Glycine max) = conditions: Glycine max; for plant injury at 8 g/ha: 8 g ai/ha; for plant injury at 16 g/ha: 16 g ai/ha; for plant injury at 31 g/ha: 31 g ai/ha; for plant injury at 62 g/ha: 62 g ai/ha
Excerpt: as §1

[5] = tested on: velvetleaf (Abutilon theophrasti); conditions: Abutilon theophrasti; for pest or weed control at 8 g/ha: 8 g ai/ha; for pest or weed control at 16 g/ha: 16 g ai/ha; for pest or weed control at 31 g/ha: 31 g ai/ha; for pest or weed control at 62 g/ha: 62 g ai/ha
Excerpt: as §1

[6] = tested on: waterhemp (common waterhemp, Amaranthus rudis); conditions: Amaranthus tuberculatus; for pest or weed control at 8 g/ha: 8 g ai/ha; for pest or weed control at 16 g/ha: 16 g ai/ha; for pest or weed control at 31 g/ha: 31 g ai/ha; for pest or weed control at 62 g/ha: 62 g ai/ha
Excerpt: as §1

[7] = tested on: winter wheat (Triticum aestivum); conditions: Triticum aestivum; for plant injury at 8 g/ha: 8 g ai/ha; for plant injury at 16 g/ha: 16 g ai/ha; for plant injury at 31 g/ha: 31 g ai/ha; for plant injury at 62 g/ha: 62 g ai/ha
Excerpt: as §1

[8] = tested on: yellow nutsedge (Cyperus esculentus); conditions: Cyperus; for pest or weed control at 8 g/ha: 8 g ai/ha; for pest or weed control at 16 g/ha: 16 g ai/ha; for pest or weed control at 31 g/ha: 31 g ai/ha; for pest or weed control at 62 g/ha: 62 g ai/ha
Excerpt: as §1

[9] = post-emergence, Postemergence, scale 0 to 100 (0 no effect, 100 complete control), read-out: Morningglory plant response rating
[10] = pre-emergence, Preemergence, scale 0 to 100 (0 no effect, 100 complete control), read-out: Plant response rating, Morningglory
[11] = post-emergence, Postemergence, scale 0 to 100 (0 no effect, 100 complete control), read-out: Oilseed Rape plant response rating
[12] = pre-emergence, Preemergence, scale 0 to 100 (0 no effect, 100 complete control), read-out: Plant response rating, Oilseed Rape
[13] = post-emergence, Postemergence, scale 0 to 100 (0 no effect, 100 complete control), read-out: Pigweed plant response rating
[14] = pre-emergence, Preemergence, scale 0 to 100 (0 no effect, 100 complete control), read-out: Plant response rating, Pigweed
[15] = post-emergence, Postemergence, scale 0 to 100 (0 no effect, 100 complete control), read-out: Ragweed plant response rating
[16] = pre-emergence, Preemergence, scale 0 to 100 (0 no effect, 100 complete control), read-out: Plant response rating, Ragweed
[17] = post-emergence, Postemergence, scale 0 to 100 (0 no effect, 100 complete control), read-out: Soybean plant response rating
[18] = pre-emergence, Preemergence, scale 0 to 100 (0 no effect, 100 complete control), read-out: Plant response rating, Soybean
[19] = post-emergence, Postemergence, scale 0 to 100 (0 no effect, 100 complete control), read-out: Velvetleaf plant response rating
[20] = pre-emergence, Preemergence, scale 0 to 100 (0 no effect, 100 complete control), read-out: Plant response rating, Velvetleaf
[21] = post-emergence, Postemergence, scale 0 to 100 (0 no effect, 100 complete control), read-out: Waterhemp plant response rating
[22] = pre-emergence, Preemergence, scale 0 to 100 (0 no effect, 100 complete control), read-out: Plant response rating, Waterhemp
[23] = post-emergence, Postemergence, scale 0 to 100 (0 no effect, 100 complete control), read-out: Wheat plant response rating
[24] = pre-emergence, Preemergence, scale 0 to 100 (0 no effect, 100 complete control), read-out: Plant response rating, Wheat
[25] = post-emergence, Postemergence, scale 0 to 100 (0 no effect, 100 complete control), read-out: Nutsedge, Yellow plant response rating
[26] = pre-emergence, Preemergence, scale 0 to 100 (0 no effect, 100 complete control), read-out: Plant response rating, Nutsedge, Yellow

FC(F)c1cc(-c2ccccc2Oc2ncc(Cl)cn2)no1 [Compound 35, 5-chloro-2-[2-[5-(difluoromethyl)-3-isoxazolyl]phenoxy]pyrimidine]
pest or weed control at 8 g/ha ([1]; post-emergence, Postemergence, read-out: Plant response rating (scale 0 to 100), Morningglory): 25% | pest or weed control at 16 g/ha [1, 9]: 60% | pest or weed control at 31 g/ha [1, 9]: 85% | pest or weed control at 62 g/ha ([1]; post-emergence, Postemergence, scale 0 to 100, 0 no effect, 100 complete control, read-out: Plant response rating, Morningglory): 98% | pest or weed control at 8 g/ha [1, 10]: 0% | pest or weed control at 16 g/ha [1, 10]: 0% | pest or weed control at 31 g/ha [1, 10]: 55% | pest or weed control at 62 g/ha [1, 10]: 90% | plant injury at 8 g/ha ([2]; post-emergence, Postemergence, read-out: Plant response rating (scale 0 to 100), Oilseed Rape): 5% | plant injury at 16 g/ha [2, 11]: 45% | plant injury at 31 g/ha [2, 11]: 80% | plant injury at 62 g/ha ([2]; post-emergence, Postemergence, scale 0 to 100, 0 no effect, 100 complete control, read-out: Plant response rating, Oilseed Rape): 98% | plant injury at 8 g/ha [2, 12]: 85% | plant injury at 16 g/ha [2, 12]: 98% | plant injury at 31 g/ha [2, 12]: 100% | plant injury at 62 g/ha [2, 12]: 100% | pest or weed control at 8 g/ha ([3]; post-emergence, Postemergence, read-out: Plant response rating (scale 0 to 100), Pigweed): 80% | pest or weed control at 16 g/ha [3, 13]: 80% | pest or weed control at 31 g/ha [3, 13]: 90% | pest or weed control at 62 g/ha ([3]; post-emergence, Postemergence, scale 0 to 100, 0 no effect, 100 complete control, read-out: Plant response rating, Pigweed): 95% | pest or weed control at 8 g/ha [3, 14]: 100% | pest or weed control at 16 g/ha [3, 14]: 100% | pest or weed control at 31 g/ha [3, 14]: 100% | pest or weed control at 62 g/ha [3, 14]: 100% | pest or weed control at 8 g/ha ([4]; post-emergence, Postemergence, read-out: Plant response rating (scale 0 to 100), Ragweed): 40% | pest or weed control at 16 g/ha [4, 15]: 45% | pest or weed control at 31 g/ha [4, 15]: 85% | pest or weed control at 62 g/ha ([4]; post-emergence, Postemergence, scale 0 to 100, 0 no effect, 100 complete control, read-out: Plant response rating, Ragweed): 75% | pest or weed control at 8 g/ha [4, 16]: 55% | pest or weed control at 16 g/ha [4, 16]: 40% | pest or weed control at 31 g/ha [4, 16]: 75% | pest or weed control at 62 g/ha [4, 16]: 80% | plant injury at 8 g/ha (soybean (Glycine max); post-emergence, Postemergence, read-out: Plant response rating (scale 0 to 100), Soybean): 40% | plant injury at 16 g/ha (soybean (Glycine max); [17]): 65% | plant injury at 31 g/ha (soybean (Glycine max); [17]): 80% | plant injury at 62 g/ha (soybean (Glycine max); post-emergence, Postemergence, scale 0 to 100, 0 no effect, 100 complete control, read-out: Plant response rating, Soybean): 95% | plant injury at 8 g/ha (soybean (Glycine max); [18]): 10% | plant injury at 16 g/ha (soybean (Glycine max); [18]): 30% | plant injury at 31 g/ha (soybean (Glycine max); [18]): 60% | plant injury at 62 g/ha (soybean (Glycine max); [18]): 85% | pest or weed control at 8 g/ha ([5]; post-emergence, Postemergence, read-out: Plant response rating (scale 0 to 100), Velvetleaf): 30% | pest or weed control at 16 g/ha [5, 19]: 50% | pest or weed control at 31 g/ha [5, 19]: 55% | pest or weed control at 62 g/ha ([5]; post-emergence, Postemergence, scale 0 to 100, 0 no effect, 100 complete control, read-out: Plant response rating, Velvetleaf): 65% | pest or weed control at 8 g/ha [5, 20]: 65% | pest or weed control at 16 g/ha [5, 20]: 85% | pest or weed control at 31 g/ha [5, 20]: 85% | pest or weed control at 62 g/ha [5, 20]: 100% | pest or weed control at 8 g/ha ([6]; post-emergence, Postemergence, read-out: Plant response rating (scale 0 to 100), Waterhemp): 75% | pest or weed control at 16 g/ha [6, 21]: 75% | pest or weed control at 31 g/ha [6, 21]: 95% | pest or weed control at 62 g/ha ([6]; post-emergence, Postemergence, scale 0 to 100, 0 no effect, 100 complete control, read-out: Plant response rating, Waterhemp): 98% | pest or weed control at 8 g/ha [6, 22]: 100% | pest or weed control at 16 g/ha [6, 22]: 100% | pest or weed control at 31 g/ha [6, 22]: 100% | pest or weed control at 62 g/ha [6, 22]: 100% | plant injury at 8 g/ha ([7]; post-emergence, Postemergence, read-out: Plant response rating (scale 0 to 100), Wheat): 0% | plant injury at 16 g/ha [7, 23]: 0% | plant injury at 31 g/ha [7, 23]: 5% | plant injury at 62 g/ha ([7]; post-emergence, Postemergence, scale 0 to 100, 0 no effect, 100 complete control, read-out: Plant response rating, Wheat): 10% | plant injury at 8 g/ha [7, 24]: 0% | plant injury at 16 g/ha [7, 24]: 0% | plant injury at 31 g/ha [7, 24]: 5% | plant injury at 62 g/ha [7, 24]: 15% | pest or weed control at 8 g/ha ([8]; post-emergence, Postemergence, read-out: Plant response rating (scale 0 to 100), Nutsedge, Yellow): 5% | pest or weed control at 16 g/ha [8, 25]: 5% | pest or weed control at 31 g/ha [8, 25]: 5% | pest or weed control at 62 g/ha ([8]; post-emergence, Postemergence, scale 0 to 100, 0 no effect, 100 complete control, read-out: Plant response rating, Nutsedge, Yellow): 5% | pest or weed control at 8 g/ha [8, 26]: 0% | pest or weed control at 16 g/ha [8, 26]: 0% | pest or weed control at 31 g/ha [8, 26]: 5% | pest or weed control at 62 g/ha [8, 26]: 5%
